According to patent US20120010075A1 (priority 2009, published 2012):

What was measured:
Phytophthora infestans = format: in vivo, Phytophthora infestans on tomato; settings: hydrazone 50 ppm + 50 μM CuCl2.2H2O, applied 24 h before inoculation, assessed 7 days after inoculation, tomato
[1] = tested on: Leptosphaeria nodorum (LEPTNO); test: In vitro fungitoxicity of hydrazones with and without copper towards Leptosphaeria nodorum (Example 26); format: cell-based; settings: compound 0.05 μg/mL, 72 h at 25° C.; for inhibition of growth at 0.05 µg/mL: Parastagonospora nodorum, 72 h, read-out: LEPTNO % Inhn. Minus Copper Observed; for LEPTNO % Inhn. Plus Copper Observed: copper-plus medium (CuCl2.2H2O)

Compound	TLB % Control (Phytophthora infestans) [%]	inhibition of growth at 0.05 µg/mL ([1]; copper-minus medium) [%]	LEPTNO % Inhn. Plus Copper Observed [1] [%]	LEPTNO % Inhn. Minus Copper Observed ([1]; copper-minus medium) [%]
C/C(=N\NC(=O)c1ccccc1N)c1ccccc1O [Example 51]	4.8	0	97.6	
C/C(=N\NC(=O)c1ccc(Cl)cc1)c1cc(Br)ccc1O [Example 293]	19.0	7.9	95.7	
CC/C(=N\NC(=O)c1ccccc1)c1ccccc1O [Example 130]	50.8	1.2	98.6	
COc1cc(Br)cc(/C=N/NC(=O)c2ccc(Cl)cc2)c1O [Example 205]	78.9	15.4	97.2	
O=C(N/N=C/c1cc(Br)cc([N+](=O)[O-])c1O)c1ccccc1 [Example 144]	87.0	0	98.5	
C/C(=N\NC(=O)Cc1ccccc1)c1ccccc1O [Example 128]	38.0	10.8	88.6	
C/C(=N\NC(=O)c1ccc(Br)cc1)c1cc(Cl)cc(Cl)c1O [Example 139]	93.0	1.7	97.1	
COc1ccccc1C(=O)N/N=C/c1cc(Cl)cc(Cl)c1O [Example 94]	37.0	0	92.9	
COc1ccc(/C=N/NC(=O)c2ccccc2)c(O)c1 [Example 147]	13.5	0	95.6	
Cc1ccc(C(=O)N/N=C/c2cc(Cl)cc(Cl)c2O)cc1 [Example 72]	81.3	14.1	91.3	
O=C(N/N=C/c1ccccc1O)c1ccc(Br)cc1 [Example 173]	12.2	8.3	97.7	
COc1ccc(C(=O)N/N=C/c2cc(Cl)cc(Cl)c2O)cc1OC [Example 85]	51.5	5.3	90.0	
C/C(=N\NC(=O)c1cccc(I)c1)c1ccccc1O [Example 26]	12.3		98.4	2.1
O=C(N/N=C/c1cc(Cl)cc(Br)c1O)c1ccccc1Cl [Example 161]	58.2	7	97.7	
O=C(N/N=C/c1cc(Cl)cc(Cl)c1O)c1cccc(F)c1 [Example 89]	85.8	17.5	95.9	
C/C(=N\NC(=O)c1cccc(Cl)c1)c1ccccc1O [Example 65]	10.0	0	98.3	
O=C(N/N=C/c1cc(Cl)cc(Br)c1O)c1ccccc1F [Example 169]	78.9	2.7	98.1	
O=C(N/N=C/c1cc(Br)cc(Br)c1O)c1ccc(Br)cc1 [Example 118]	85.3	10.6	98.3	
Cc1ccccc1C(=O)N/N=C/c1cc(Cl)ccc1O [Example 157]	61.8	7.8	96.9	
Cc1ccc(C(=O)N/N=C/c2cc(Br)ccc2O)cc1 [Example 179]	35.1	18.7	98.0	
O=C(N/N=C/c1cc(Cl)cc([N+](=O)[O-])c1O)c1ccc(Cl)cc1 [Example 199]	56.1	4	98.0	
